Measurements: PubChem BioAssay AID248 (DTP/NCI, 2004)
Several values for one entry are separate records, joined by “and”; a condition that tells them apart may be missing. Equal entries are not always repeated. Toxic doses and inconclusive results are not listed. No stated cut-off is given here; in the data, active means T/C of 150% or more; inactive means T/C below 125%.

Tested on: L1210 leukemia ip in BDF1 mice, survival T/C
Experiment: NCI In Vivo Anticancer Drug Screen. Data for tumor model L1210 Leukemia (intraperitoneal) in B6D2F1 (BDF1) mice
Conditions: endpoint: mean survival time, higher = longer survival
Outline: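 Value reflects the ratio of survival in compound-treated mice to survival in vehicle-treated controls, with both groups carrying the same transplanted tumor.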

[1] = dose: 75.0 mg/kg/injection, schedule: Q01DX001 (ip), vehicle: saline

Measured: T/C

Cc1nc(N=C(N)N)nc2ccc(Cl)cc12
inactive: dose: 18.8 mg/kg/injection, schedule: Q04DX003 (ip), vehicle: saline 96 % of control | dose: 37.5 mg/kg/injection, schedule: Q04DX003 (ip), vehicle: saline 105 % of control | [1] 101 % of control | dose: 75.0 mg/kg/injection, schedule: Q04DX003 (ip), vehicle: saline 100 % of control

NC(N)=NO
inactive: dose: 9.37 mg/kg/injection, schedule: Q01DX009 (ip), vehicle: saline 107 % of control | dose: 18.75 mg/kg/injection, schedule: Q01DX009 (ip), vehicle: saline 107 % of control | dose: 37.5 mg/kg/injection, schedule: Q01DX009 (ip), vehicle: saline 109 % of control | dose: 75.0 mg/kg/injection, schedule: Q01DX009 (ip), vehicle: saline 111 % of control | dose: 100.0 mg/kg/injection, schedule: Q01DX Z (ip), vehicle: saline 115 % of control | dose: 144.0 mg/kg/injection, schedule: Q03HX024 (ip), vehicle: saline 123 % of control | dose: 150.0 mg/kg/injection, schedule: Q01DX Z (ip), vehicle: other 112 % of control | dose: 217.0 mg/kg/injection, schedule: Q03HX024 (ip), vehicle: saline 117 % of control | dose: 300.0 mg/kg/injection, schedule: Q01DX Z (ip), vehicle: other 121 % of control | dose: 300.0 mg/kg/injection, schedule: Q01DX Z (ip), vehicle: saline 122 % of control | dose: 325.0 mg/kg/injection, schedule: Q03HX024 (ip), vehicle: saline 122 % of control | dose: 400.0 mg/kg/injection, schedule: Q04DX003 (ip), vehicle: saline 104 % of control | dose: 487.0 mg/kg/injection, schedule: Q03HX024 (ip), vehicle: saline 113 % of control | dose: 600.0 mg/kg/injection, schedule: Q04DX003 (ip), vehicle: saline 91 % of control

CCC(=O)c1ccc2c(c1)N(C(C)CN(C)C)c1ccccc1S2 (centres undefined)
inactive: dose: 1.56 mg/kg/injection, schedule: Q03HX024 (ip), vehicle: saline 100 % of control | dose: 3.12 mg/kg/injection, schedule: Q03HX024 (ip), vehicle: saline 102 % of control | dose: 6.25 mg/kg/injection, schedule: Q01DX009 (ip), vehicle: saline 100 % of control and 106 % of control | dose: 6.25 mg/kg/injection, schedule: Q03HX024 (ip), vehicle: saline 100 % of control | dose: 6.25 mg/kg/injection, schedule: Q04DX003 (ip), vehicle: saline 101 % of control | dose: 12.5 mg/kg/injection, schedule: Q01DX009 (ip), vehicle: saline 104 % of control and 109 % of control and 110 % of control | dose: 12.5 mg/kg/injection, schedule: Q03HX024 (ip), vehicle: saline 100 % of control | dose: 12.5 mg/kg/injection, schedule: Q04DX003 (ip), vehicle: saline 103 % of control | dose: 18.75 mg/kg/injection, schedule: Q01DX001 (ip), vehicle: saline 107 % of control | dose: 25.0 mg/kg/injection, schedule: Q01DX009 (ip), vehicle: saline 106 % of control and 110 % of control and 116 % of control | dose: 25.0 mg/kg/injection, schedule: Q04DX003 (ip), vehicle: saline 103 % of control and 104 % of control | dose: 37.5 mg/kg/injection, schedule: Q01DX001 (ip), vehicle: saline 115 % of control | dose: 50.0 mg/kg/injection, schedule: Q01DX009 (ip), vehicle: saline 109 % of control and 118 % of control | dose: 50.0 mg/kg/injection, schedule: Q04DX003 (ip), vehicle: saline 109 % of control and 120 % of control | [1] 109 % of control | dose: 100.0 mg/kg/injection, schedule: Q01DX009 (ip), vehicle: saline 90 % of control | dose: 150.0 mg/kg/injection, schedule: Q01DX001 (ip), vehicle: saline 96 % of control

CC1CN(CC2CCCCCCCCCCC2=O)CC(C)O1 (centres undefined)
inactive: dose: 100.0 mg/kg/injection, schedule: Q04DX002 (ip), vehicle: Klucel (hydroxypropylcellulose) (HPC) 116 % of control | dose: 200.0 mg/kg/injection, schedule: Q04DX002 (ip), vehicle: Klucel (hydroxypropylcellulose) (HPC) 90 % of control

COc1ccc2c(c1OC)C1(CCN(C)C)CC(O)CCC1C=C2 (centres undefined)
inactive: dose: 100.0 mg/kg/injection, schedule: Q04DX003 (ip), vehicle: saline 102 % of control | dose: 200.0 mg/kg/injection, schedule: Q04DX003 (ip), vehicle: saline 102 % of control
